Assay results taken from ChEMBL document CHEMBL1201862, “PubChem BioAssay data set” (2004).
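Grown in 96-well plates, cells were treated for 48 hours with each compound at five concentrations. Insufficient inhibition: endpoint recorded as highest concentration tested. GI50 = concentration required for 50% inhibition of growth.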 Calls of active or inactive are those of the source. No stated cut-off is given here; in the data, active = GI50 up to about 1.1 µM and inactive = higher.

Columns and labels:
Assay in all cases: inhibition of tumour cell growth, NCI panel, 48 h
[1] = tested on: RPMI-8226
[2] = tested on: CAKI-1
[3] = tested on: SNB-19
[4] = tested on: ACHN
[5] = tested on: NCI-H226
[6] = tested on: Hs-578T
[7] = tested on: SK-OV-3
[8] = tested on: T47D
[9] = tested on: A549
[10] = tested on: SF-539
[11] = tested on: KM12
[12] = tested on: M14
[13] = tested on: HCC 2998
[14] = tested on: UO-31
[15] = tested on: MOLT-4
[16] = tested on: SK-MEL-28
[17] = tested on: EKVX
[18] = tested on: MDA-MB-231
[19] = tested on: OVCAR-5
[20] = tested on: BT-549

Measured: GI50

CC1(C)Oc2ccc(Cl)cc2C12CC2
inactive: [1] 16.1 µM | [2] 15.6 µM | [3] 16.5 µM | [4] 16.3 µM | [5] 13.6 µM | [6] 24.4 µM | [7] 21.7 µM | [8] 22.6 µM | [9] 18.9 µM | [10] 31.5 µM | [11] 17.7 µM | [12] 18.8 µM | [13] 15.8 µM | [14] 16.9 µM | [15] 17.1 µM | [16] 17.9 µM | [17] 10.8 µM | [18] 16.6 µM | [19] 17.4 µM | [20] 21.1 µM

[N-]=[N+]=Nc1ccccc1C(=O)N1C(=O)c2ccccc2C(=O)N(C(=O)c2ccccc2N=[N+]=[N-])c2ccccc21
inactive: [1] 36.8 µM | [2] 59 µM | [3] 60.4 µM | [4] 45.1 µM | [5] > 100 µM | [6] 35.6 µM | [7] 31.2 µM | [8] 23.1 µM | [9] 37.1 µM | [10] 43.7 µM | [11] 57.8 µM | [12] > 100 µM | [13] > 100 µM | [14] > 100 µM | [15] 13.9 µM | [16] > 100 µM | [17] > 100 µM | [18] 52.8 µM | [19] > 100 µM | [20] 55.2 µM

CC(=O)Oc1c(C)c2c(O)c3c1C1=C(OCOC1=C(C)C3=O)/C(C)=C/C(C)(O)C(O)C(C)C(O)C1C(=O)OC(C(C)C1O)C(C)(O)/C=C\C=C(C)C(=O)N2 (stereo not given)
inactive: [1] 86.9 µM | [2] 17.1 µM | [3] 66.8 µM | [4] 33.9 µM | [5] 18.1 µM | [6] 25.7 µM | [7] 35.5 µM | [8] > 100 µM | [9] 76 µM | [10] 10.4 µM | [11] 34.8 µM | [12] 34.4 µM | [13] 69.5 µM | [14] 11.1 µM | [15] 36.1 µM | [16] 81.5 µM | [17] 10.7 µM | [18] 21.5 µM | [19] 4.46 µM | [20] 19.7 µM

COc1cc(C(c2c(O)c3ccccc3oc2=O)c2c(O)c3ccccc3oc2=O)ccc1O
inactive: [1] 34.6 µM | [2] 20.8 µM | [3] 26.8 µM | [4] 22.6 µM | [5] 50.4 µM | [6] 40.4 µM | [7] > 100 µM | [8] 17.9 µM | [9] 59.7 µM | [10] 23.3 µM | [11] 32.7 µM | [12] 18.1 µM | [13] 18.9 µM | [14] 25.1 µM | [15] 21.1 µM | [16] 16.7 µM | [17] 27.9 µM | [18] 21.1 µM | [19] 18.7 µM | [20] 19.1 µM
